According to patent publication US9714249B2 (Novartis AG, priority 2013, dated 2017):

Assays:
Settings in all cases: acetyl-histone H4 peptide
[1] = molecular target: BRD2 (His-Brd2(60-472)) (Homo sapiens (Human), UniProt P25440); assay: TR-FRET in-vitro binding assay for BRD2
Description: (§1) All assays were performed in 384 well microtiter plates. Each assay plate contained 8-point serial dilutions for 40 test compounds, plus 16 high- and 16 low controls. Liquid handling and incubation steps were done on an Innovadyne Nanodrop Express equipped with a robotic arm (Thermo CatX, Perkin Elmer/Caliper Twister II) and an incubator (Liconic STX40, Thermo Cytomat 2C450). The assay plates were prepared by addition of 50 nl per well of compound solution in 90% DMSO HummingBird nanodispenser (Zinsser Analytic). The assay was started by stepwise addition of 4.5 μl per well of bromo domain protein (50 mM HEPES, pH 7.5, 0.005% Tween20, 0.1% BSA, 50 mM NaCl, 45 nM His-Brd2(60-472) or 45 nM His-Brd3(20-477) or 45 nM His-Brd4(44-477) all proteins produced in-house) and 4.5 μl per well of peptide solution (50 mM HEPES, pH 7.5, 0.005% Tween20, 0.1% BSA, 50 mM NaCl, 60 nM acetyl-histone H4 (AcK 5, 8, 12, 16) (Biosyntan GmbH)). Reactions were incubated at 30° C. for 35 minutes. Subsequently 4.5 μl per well detection mix (50 mM HEPES, pH 7.5, 0.005% Tween20, 0.1% BSA, 50 mM NaCl, 3 nM Eu-labeled anti-His6 antibody, 21 nM streptavidin-allophycocyanin) were added. After 35 minutes incubation at 30° C., plates were measured in a Perkin Elmer EnVision multilabel reader. Concentrations causing 50% inhibition (1050) values were determined from percent inhibition values at different compound concentrations by non-linear regression analysis.
(§2) Test compounds were dissolved in DMSO (10 mM) and transferred into 1.4 mL flat bottom or V-shaped Matrix tubes carrying a unique 2D matrix. The stock solutions were stored at […] if not used immediately. For the test procedure the vials were defrosted and identified by a scanner whereby a working sheet was generated that guided the subsequent working steps. Compound dilutions were made in 96 well plates. This format enabled the assay of maximally 40 individual test compounds at 8 concentrations (single points) including 4 reference compounds, if desired (known BET inhibitors from the prior art, for this and other assays of the type disclosed herein). The dilution protocol included the production of “pre-dilution plates”, “master plates” and “assay plates”.
(§3) Pre-dilution plates: 96 polypropylene well plates were used as pre-dilution plates. A total of 4 pre-dilution plates were prepared including 10 test compounds each on the plate positions A1-A10, one standard compound at A11 and one DMSO control at A12. All dilution steps were done on a HamiltonSTAR robot. Master plates: 30 μL of individual compound dilutions including standard compound and controls of the 4 “pre-dilution plates” were transferred into a 384 “master plate” including the following concentrations 10000, 3003, 1000, 300, 100, 30, 10 and 3 μM, respectively in 90% of DMSO. Assay plates: Identical “assay plates” were then prepared by pipetting 50 nL each of compound dilutions of the “master plates” into 384-well “assay plates” by means of a HummingBird 384-channel dispenser. These plates were used directly for the assay which was performed in a total volume of 13.55 μL. This led to a final compound concentration of 37, 11, 3.7, 1.1, 0.37, 0.11, 0.037 and 0.011 μM and a final DMSO concentration of 0.37% in the assay. Cell Growth Inhibition Assay

[2] = molecular target: BRD3 (His-Brd3(20-477)) (Homo sapiens (Human), UniProt Q15059); assay: TR-FRET in-vitro binding assay for BRD3
Sequence of BRD3 (His-Brd3(20-477)) (Q15059 20-477, species assumed): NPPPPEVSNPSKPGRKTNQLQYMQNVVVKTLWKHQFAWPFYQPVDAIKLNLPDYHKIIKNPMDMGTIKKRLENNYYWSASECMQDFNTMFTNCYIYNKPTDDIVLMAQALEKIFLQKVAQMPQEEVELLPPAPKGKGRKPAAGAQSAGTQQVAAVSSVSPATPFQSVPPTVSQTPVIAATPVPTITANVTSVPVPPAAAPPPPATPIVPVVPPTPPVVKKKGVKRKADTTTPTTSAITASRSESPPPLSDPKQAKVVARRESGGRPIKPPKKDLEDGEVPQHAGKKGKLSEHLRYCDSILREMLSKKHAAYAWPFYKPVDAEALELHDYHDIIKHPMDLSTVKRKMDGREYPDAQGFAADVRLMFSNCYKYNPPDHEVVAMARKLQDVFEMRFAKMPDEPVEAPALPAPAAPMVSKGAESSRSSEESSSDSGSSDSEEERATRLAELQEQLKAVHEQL
Description: as §1, §2, §3

[3] = molecular target: CREBBP bromodomain (His-CREBBP (1081-1197)) (Homo sapiens (Human), UniProt Q92793); assay: AlphaScreen in-vitro binding assay for CREBBP
Sequence of CREBBP bromodomain (His-CREBBP (1081-1197)) (Q92793 1081-1197): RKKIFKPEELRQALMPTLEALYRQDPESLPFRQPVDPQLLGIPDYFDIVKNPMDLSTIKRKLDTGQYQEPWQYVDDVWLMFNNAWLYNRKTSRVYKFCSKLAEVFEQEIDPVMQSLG
Description: In order to assess bromodomain selectivity, we set up a binding assay using the bromodomain encoded by the CREBBP gene. […] Reactions were incubated at 30° C. for 35 minutes. Subsequently 4.5 μl per well detection mix (50 mM HEPES, pH 7.5, 0.005% Tween20, 0.02% BSA, 150 mM NaCl, 45 μg/ml Ni-chelate acceptor beads, 45 μg/ml streptavidin-donor beads) (Perkin Elmer)) were added. After 60 minutes incubation at room temperature, plates were measured in a Perkin Elmer EnVision multilabel reader. IC50 values were determined from percent inhibition values at different compound concentrations by non-linear regression analysis.
as §2
Pre-dilution plates: 96 polypropylene well plates were used as pre-dilution plates. A total of 4 pre-dilution plates were prepared including 10 test compounds each on the plate positions A1-A10, one standard compound at A11 and one DMSO control at A12. All dilution steps were done on a HamiltonSTAR robot. […] These plates were used directly for the assay which was performed in a total volume of 13.55 μL. […] Cell Growth Inhibition Assay

Sequence of BRD2 (His-Brd2(60-472)) (P25440 60-472, species assumed): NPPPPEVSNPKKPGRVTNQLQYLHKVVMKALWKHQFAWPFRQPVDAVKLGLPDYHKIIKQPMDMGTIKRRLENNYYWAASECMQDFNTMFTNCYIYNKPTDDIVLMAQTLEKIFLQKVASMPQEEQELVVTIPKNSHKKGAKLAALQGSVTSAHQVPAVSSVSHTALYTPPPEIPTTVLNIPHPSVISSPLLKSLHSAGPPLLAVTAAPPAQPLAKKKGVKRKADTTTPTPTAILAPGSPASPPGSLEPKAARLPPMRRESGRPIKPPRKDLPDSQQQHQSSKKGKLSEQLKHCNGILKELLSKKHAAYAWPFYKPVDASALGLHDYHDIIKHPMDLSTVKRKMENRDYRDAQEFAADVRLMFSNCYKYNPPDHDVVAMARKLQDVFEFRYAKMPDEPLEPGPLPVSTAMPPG

SMILES	IC50 [1]	IC50 [2]	IC50 [3]
COc1ccc(-n2nc(C)c3c2C(c2ccc(Cl)cc2)N(c2cc(C)c(=O)n(C)c2)C3=O)cc1 (stereo not drawn) [Example 13, 6-(4-chlorophenyl)-5-(1,5-dimethyl-6-oxo-1,6-dihydropyridin-3-yl)-1-(4-methoxyphenyl)-3-methyl-5,6-dihydropyrrolo[3,4-c]pyrazol-4(1H)-one]	97 nM	75.5 nM	2200 nM
Cc1cc(N2C(=O)c3c(C4CC4)nn(-c4ccnn4C)c3C2c2ccc(Cl)cc2)cn(C)c1=O (stereo not drawn) [Example 5, 6-(4-chlorophenyl)-3-cyclopropyl-5-(1,5-dimethyl-6-oxo-1,6-dihydropyridin-3-yl)-1-(1-methyl-1H-pyrazol-5-yl)-5,6-dihydropyrrolo[3,4-c]pyrazol-4(1H)-one]	74 nM	82 nM	5000 nM
Cc1cc(N2C(=O)c3c(C4CC4)nn(C)c3C2c2ccc(Cl)cc2)cn(C)c1=O (stereo not drawn) [Example 1, 6-(4-chlorophenyl)-3-cyclopropyl-5-(1,5-dimethyl-6-oxo-1,6-dihydropyridin-3-yl)-1-methyl-5,6-dihydropyrrolo[3,4-c]pyrazol-4(1H)-one]	32 nM	30 nM	1400 nM
Cc1[nH]nc2c1C(=O)N(c1cc(Cl)c(=O)n(C)c1)C2c1ccc(Cl)cc1 (stereo not drawn) [Example 6, 5-(5-chloro-1-methyl-6-oxo-1,6-dihydropyridin-3-yl)-6-(4-chlorophenyl)-3-methyl-5,6-dihydropyrrolo[3,4-c]pyrazol-4(2H)-one]	94 nM	80 nM	4100 nM
COc1ncccc1-c1nn(C)c2c1C(=O)N(c1cc(C)c(=O)n(C)c1)C2c1ccc(Cl)cc1 (stereo not drawn) [Example 15, 6-(4-chlorophenyl)-5-(1,5-dimethyl-6-oxo-1,6-dihydropyridin-3-yl)-3-(2-methoxypyridin-3-yl)-1-methyl-5,6-dihydropyrrolo[3,4-c]pyrazol-4(1H)-one]	70 nM	65.5 nM	1000 nM
Cc1nn(C(C)C)c2c1C(=O)N(c1cc(C)c(=O)n(C)c1)C2c1ccc(Cl)cc1 (stereo not drawn) [Example 12, 6-(4-chlorophenyl)-5-(1,5-dimethyl-6-oxo-1,6-dihydropyridin-3-yl)-1-isopropyl-3-methyl-5,6-dihydropyrrolo[3,4-c]pyrazol-4(1H)-one]	52 nM	46 nM	1400 nM
Cc1[nH]nc2c1C(=O)N(c1cc(Cl)c(=O)n(C)c1)[C@@H]2c1ccc(Cl)cc1 [Example 28, (R)-5-(5-chloro-1-methyl-6-oxo-1,6-dihydropyridin-3-yl)-6-(4-chlorophenyl)-3-methyl-5,6-dihydropyrrolo[3,4-c]pyrazol-4(2H)-one]	170 nM	69 nM	2200 nM

The remaining lines, values ahead:

IC50 [1]	IC50 [2]	IC50 [3]	SMILES
61 nM	50 nM	2000 nM	COc1ccc(-n2nc3c(c2C)C(=O)N(c2cc(C)c(=O)n(C)c2)C3c2ccc(Cl)cc2)cn1 (stereo not drawn) [Example 20a, 6-(4-chlorophenyl)-5-(1,5-dimethyl-6-oxo-1,6-dihydropyridin-3-yl)-2-(6-methoxypyridin-3-yl)-3-methyl-5,6-dihydropyrrolo[3,4-c]pyrazol-4(2H)-one]
100 nM	94 nM	4700 nM	COc1ncc(-n2nc3c(c2C)C(=O)N(c2cc(C)c(=O)n(C)c2)C3c2ccc(Cl)cc2)cn1 (stereo not drawn) [Example 21b, 6-(4-chlorophenyl)-5-(1,5-dimethyl-6-oxo-1,6-dihydropyridin-3-yl)-2-(2-methoxypyrimidin-5-yl)-3-methyl-5,6-dihydropyrrolo[3,4-c]pyrazol-4(2H)-one]
53 nM	46 nM	1300 nM	COc1ncccc1-n1nc2c(c1C)C(=O)N(c1cc(C)c(=O)n(C)c1)C2c1ccc(Cl)cc1 (stereo not drawn) [Example 17b, 6-(4-chlorophenyl)-5-(1,5-dimethyl-6-oxo-1,6-dihydropyridin-3-yl)-2-(2-methoxypyridin-3-yl)-3-methyl-5,6-dihydropyrrolo[3,4-c]pyrazol-4(2H)-one]
